{"source": "patent US9469674B2", "about": "(HAINAN UNIVERSITY, dated 2016)", "key": {"[1]": {"molecular_target": "α3β4 acetylcholine receptor", "conditions": "read-out: half-blocking dose IC50; cited from earlier work"}, "[2]": {"molecular_target": "α3β2 acetylcholine receptor (Homo sapiens, UniProt P17787+P32297)", "conditions": "read-out: half-blocking dose IC50; cited from earlier work"}, "[3]": {"molecular_target": "α4β2 acetylcholine receptor (Homo sapiens, UniProt P17787+P43681)", "conditions": "read-out: half-blocking dose IC50; cited from earlier work"}, "[4]": {"molecular_target": "α6/α3β2β3 acetylcholine receptor", "conditions": "read-out: half-blocking dose IC50; cited from earlier work"}, "[5]": {"molecular_target": "α6/α3β4 acetylcholine receptor", "conditions": "read-out: half-blocking dose IC50; cited from earlier work"}, "[6]": {"molecular_target": "α4β4 acetylcholine receptor (Homo sapiens, UniProt P30926+P43681)", "sequence (P43681 29-627 limits assumed)": "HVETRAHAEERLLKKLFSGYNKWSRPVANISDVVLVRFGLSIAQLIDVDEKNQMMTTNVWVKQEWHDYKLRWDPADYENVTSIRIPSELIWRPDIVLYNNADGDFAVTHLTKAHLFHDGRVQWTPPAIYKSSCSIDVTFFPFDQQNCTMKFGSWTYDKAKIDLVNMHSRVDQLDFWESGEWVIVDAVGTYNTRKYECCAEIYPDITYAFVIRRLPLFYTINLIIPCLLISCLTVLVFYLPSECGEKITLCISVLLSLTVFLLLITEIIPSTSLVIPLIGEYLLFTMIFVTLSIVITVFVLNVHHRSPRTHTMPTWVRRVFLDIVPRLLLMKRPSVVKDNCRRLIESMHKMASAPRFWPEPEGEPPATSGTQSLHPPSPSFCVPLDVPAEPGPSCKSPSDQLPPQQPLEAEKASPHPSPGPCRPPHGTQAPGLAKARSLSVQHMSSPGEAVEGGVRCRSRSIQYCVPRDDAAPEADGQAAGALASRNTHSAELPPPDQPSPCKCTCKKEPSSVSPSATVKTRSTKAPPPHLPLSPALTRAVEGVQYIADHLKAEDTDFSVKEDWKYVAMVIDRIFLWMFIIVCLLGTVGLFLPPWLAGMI", "sequence (P30926 22-498 limits assumed)": "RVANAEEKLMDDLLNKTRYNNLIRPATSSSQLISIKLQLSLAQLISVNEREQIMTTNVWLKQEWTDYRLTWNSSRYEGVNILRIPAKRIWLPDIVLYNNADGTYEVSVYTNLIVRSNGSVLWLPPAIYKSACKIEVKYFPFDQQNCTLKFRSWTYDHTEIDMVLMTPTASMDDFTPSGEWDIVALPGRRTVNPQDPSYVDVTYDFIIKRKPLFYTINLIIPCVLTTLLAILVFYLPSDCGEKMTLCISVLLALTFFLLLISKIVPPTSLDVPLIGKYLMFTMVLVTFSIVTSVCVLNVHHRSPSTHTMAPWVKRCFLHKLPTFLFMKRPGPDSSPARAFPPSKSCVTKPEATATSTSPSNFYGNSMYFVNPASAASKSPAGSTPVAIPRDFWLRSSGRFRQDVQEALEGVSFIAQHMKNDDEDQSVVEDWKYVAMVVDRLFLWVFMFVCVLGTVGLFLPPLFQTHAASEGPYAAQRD", "conditions": "read-out: half-blocking dose IC50; cited from earlier work"}, "[7]": {"molecular_target": "α2β4 acetylcholine receptor (Homo sapiens, UniProt P30926+Q15822)", "sequence (Q15822 27-529 limits assumed)": "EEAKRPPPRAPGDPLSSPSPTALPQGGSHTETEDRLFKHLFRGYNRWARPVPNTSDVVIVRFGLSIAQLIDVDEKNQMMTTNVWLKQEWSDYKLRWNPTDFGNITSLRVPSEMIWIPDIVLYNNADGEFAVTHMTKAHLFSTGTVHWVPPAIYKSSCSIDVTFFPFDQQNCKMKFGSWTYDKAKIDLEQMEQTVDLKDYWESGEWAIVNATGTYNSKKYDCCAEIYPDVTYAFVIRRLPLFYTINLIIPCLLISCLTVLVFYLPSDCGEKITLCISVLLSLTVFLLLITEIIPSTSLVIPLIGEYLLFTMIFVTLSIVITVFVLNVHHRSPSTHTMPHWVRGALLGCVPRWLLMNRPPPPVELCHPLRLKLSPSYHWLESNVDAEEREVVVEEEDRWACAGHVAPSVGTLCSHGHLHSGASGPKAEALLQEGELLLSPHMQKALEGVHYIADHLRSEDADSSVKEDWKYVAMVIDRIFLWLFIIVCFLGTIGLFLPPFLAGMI", "sequence (P30926 22-498 limits assumed)": "as the sequence (P30926 22-498 limits assumed) above", "conditions": "read-out: half-blocking dose IC50; cited from earlier work"}, "[8]": {"molecular_target": "α7 acetylcholine receptor (Homo sapiens, UniProt P36544)", "sequence (P36544 23-502 limits assumed)": "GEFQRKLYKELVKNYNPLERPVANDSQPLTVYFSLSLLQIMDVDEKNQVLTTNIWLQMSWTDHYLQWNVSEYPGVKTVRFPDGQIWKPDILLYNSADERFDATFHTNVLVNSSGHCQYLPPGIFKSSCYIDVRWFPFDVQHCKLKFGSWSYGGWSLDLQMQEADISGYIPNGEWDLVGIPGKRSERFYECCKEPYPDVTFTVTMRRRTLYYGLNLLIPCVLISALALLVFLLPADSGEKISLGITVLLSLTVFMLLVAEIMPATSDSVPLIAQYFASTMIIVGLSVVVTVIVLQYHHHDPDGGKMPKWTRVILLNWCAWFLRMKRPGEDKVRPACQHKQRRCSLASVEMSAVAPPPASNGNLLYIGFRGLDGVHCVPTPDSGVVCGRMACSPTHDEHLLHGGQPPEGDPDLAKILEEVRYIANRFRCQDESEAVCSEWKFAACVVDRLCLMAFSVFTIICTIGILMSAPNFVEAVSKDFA", "conditions": "read-out: half-blocking dose IC50; cited from earlier work"}, "nAChRs": {"test_system": "nAChRs", "conditions": "cited from earlier work"}, "rat α2β4 nAChR": {"molecular_target": "rat α2β4 nAChR (rat, UniProt P12389)", "assay": "cell-based or functional assay"}, "rat α9α10 nAChR": {"molecular_target": "rat α9α10 nAChR (rat, UniProt P43144)", "assay": "cell-based or functional assay"}, "rat α2β2 nAChR": {"molecular_target": "rat α2β2 nAChR (rat, UniProt P12389)", "assay": "cell-based or functional assay"}, "rat α4β2 nAChR": {"molecular_target": "rat α4β2 nAChR (rat, UniProt P09483)", "assay": "cell-based or functional assay"}, "rat α4β4 nAChR": {"molecular_target": "rat α4β4 nAChR (rat, UniProt P09483)", "assay": "cell-based or functional assay"}, "human α3β2 nAChR": {"molecular_target": "human α3β2 nAChR (human, UniProt P32297)", "assay": "cell-based or functional assay"}, "rat α7 nAChR": {"molecular_target": "rat α7 nAChR (rat, UniProt Q05941)", "assay": "cell-based or functional assay"}}, "note": "Where no end group is shown, it is not given here."}
{"molecule": "GCCSHPACAGNNQHIC* [GIC]", "values": [{"measurement": "IC50", "setting": "[1]", "value": 755, "unit": "nM"}, {"measurement": "IC50", "setting": "[2]", "value": 1.1, "unit": "nM"}, {"measurement": "IC50", "setting": "[3]", "value": 309, "unit": "nM"}]}
{"molecule": "GCCSTPPCAVLY---C* [BuIA]", "values": [{"measurement": "IC50", "setting": "[1]", "value": 27.7, "unit": "nM"}, {"measurement": "IC50", "setting": "[4]", "value": "0.26 to 0.46", "unit": "nM"}, {"measurement": "IC50", "setting": "[5]", "value": "1.54 to 2.1", "unit": "nM"}, {"measurement": "IC50", "setting": "[2]", "value": 5.72, "unit": "nM"}, {"measurement": "IC50", "setting": "[6]", "value": 69.9, "unit": "nM"}, {"measurement": "IC50", "setting": "[7]", "value": 121, "unit": "nM"}, {"measurement": "IC50", "setting": "[8]", "value": 272, "unit": "nM"}]}
{"molecule": "NGRCC-HPACGKHFN--C* [Ac1.1a]", "values": [{"measurement": "nAChRs selectivity", "setting": "nAChRs", "value": "Muscle nAChR"}]}
{"molecule": "RTCCSRPTCRMEYPELC*grr [SrIA/SrIB]", "values": [{"measurement": "nAChRs selectivity", "setting": "nAChRs", "value": "Muscle nAChR/α4β2"}]}
{"molecule": "GCCSHPACNVDHPEIC (not fully specified; ends and bridges not checked)", "note": "[α-conotoxin LvIA/LvD21]", "values": [{"measurement": "IC50 (half-blocking dose) on ACh-gated current", "setting": "rat α2β4 nAChR", "value": 15500, "unit": "nM"}, {"measurement": "IC50 (half-blocking dose) on ACh-gated current", "setting": "rat α9α10 nAChR", "value": "> 10000", "unit": "nM"}, {"measurement": "IC50 (half-blocking dose) on ACh-gated current", "setting": "rat α2β2 nAChR", "value": "> 10000", "unit": "nM"}, {"measurement": "IC50 (half-blocking dose) on ACh-gated current", "setting": "rat α4β2 nAChR", "value": "> 10000", "unit": "nM"}, {"measurement": "IC50 (half-blocking dose) on ACh-gated current", "setting": "rat α4β4 nAChR", "value": "> 10000", "unit": "nM"}, {"measurement": "IC50 (half-blocking dose) on ACh-gated current", "setting": "human α3β2 nAChR", "value": 17.5, "unit": "nM"}, {"measurement": "IC50 (half-blocking dose) on ACh-gated current", "setting": "rat α7 nAChR", "value": 3000, "unit": "nM"}]}
